The source of these data is patent US20090054507A1, “CONTROL OF MALIGNANT CELLS BY KINASE INHIBITION” (CLEVELAND STATE UNIVERSITY, priority 2006, published 2009).

In series [1] the test system is MEG-01 cells. The experiment in a line: Flow cytometric DNA content assay using PI/RNAse A. The series is classed as cell-based, human. Particulars: 10 μM DMAT for 4 days. As to the method:
Flow cytometric DNA content assessment assay using PI/RNAse A. Cells were serum starved in order to synchronize them in the GO phase. Treatment with DMAT 10 μM for a period of 4 days was performed and then cells were collected for further processing. Cells were fixed in 80% cold Ethanol/PBS added drop-wise. Before PI staining cells were washed with sterile, RNAse, DNAse free, PBS buffer. Fixed cells were incubated with 50 μg/ml PI and 100 μg/ml RNAse A-I in hypotonic citrate staining buffer for 30 minutes in dark, at room temperature.

The conditions of series [2]: 25 mg/kg twice daily, injections in mice; cited from earlier work.
Series [3] deals with MEG-01 cells. The experiment in a line: Annexin V-FITC and PI apoptosis assay, MEG-01. It is filed as cell-based, human. As to the method: Flow cytometric analysis. Cells were analyzed using a FACSCalibur flow cytofluorometer (Becton-Dickinson), with CellQuestPro ver. 3.3 software. The data was further analyzed with FlowJo ver. 6.2, and WinMDI 2.8 software. Proper gating was performed to characterize each cell population (MEG-01 cells and platelets). The population that corresponds to platelets (small, granulated particles), is PI negative because thrombocytes are anucleated cells (only the viable cells were considered) and were distinguished by their capacity to become activated, undergoing shape change in response to agonist and to show phosphatidylserine (PS) exposure when activated. Platelets were further separated from the megakaryocytic cells, by differential centrifugation, considering the size difference between these cell populations (1-5 μm for platelets and 35-150 μm for megakaryocytic cell line MEG-01) and analyzed separately. Voltage and channels settings were adjusted accordingly. Analyzed values were obtained with WinMDI ver. 2.8.
Apoptosis Assays using Flow Cytometry with Annexin V-FITC and propidium iodide (PI). For induction of typical apoptosis, cells were grown in the presence of 1 μM staurosporine (Sigma-Aldrich) for 6 hours. The staurosporine treated cells were stained as follows: control 1 with PI, control 2 with Annexin V-FITC and control 3 both PI and Annexin V-FITC in order to have the brightest controls for compensation and proper collection of the flow cytometry data. Cell necrosis was induced by heat shock (65° C. for 30 minutes). The stained control, both PI and Annexin V-FITC labeled, was then used as the reference in establishing the level of apoptosis induced by the treatments. Data was collected on logarithmic modes, two-colors. Annexin V-FITC corresponds to FL1 H channel, and PI to FL3H or FL2H channels.
Annexin V-FITC and PI apoptosis assay staining protocol. Apoptosis Annexin V-FITC and PI kit from BD Biosciences, CA, USA, was used. 10^5-10^6 cells were stained with 50 μg/ml PI and with 0.5 μg/ml FITC-labeled Annexin V using the staining protocol provided by the supplier. Samples were then analyzed immediately by flow cytometry.

In series [4] the test system is platelets from MEG-01 cells. The experiment in a line: Function assays of platelets released from treated MEG-01 cells. The series is classed as cell-based, human. On the procedure: Platelets isolation from culture. Platelets were separated from the megakaryocytic cells, by differential centrifugation and analyzed separately. Suspension cells were centrifuged first at 100 g-150 g for 15 minutes, and then the platelets rich supernatant was kept and centrifuged again at 800 g for 15 minutes. For impeding artefactual aggregation of platelets in the control, EDTA and RGD or RGDS were added in the cell suspension from the beginning of the centrifugations, and with each centrifugation step. 1 mg/ml RGD or RGDS and 10 mM EDTA final concentrations, were used for negative control (inactivated) or resting platelets. Platelets were activated with different agonists: 100 nM PMA, 1 μg/ml TRAP and 0.5 U/ml human a-thrombin. For most of assays TRAP 1 μg/ml was used. For scanning electron microscopy experiment (formation of the fibrin clot) human a-thrombin was used. For both sample sets, activated (with TRAP) and inactivated (EDTA, RGD), platelets collected from MEG-01 cultures incubated with 10 μM DMAT for 4 days were utilized.
PAC-I-FITC binding due to platelet activation flow cytometric assay. Monoclonal antibody PAC-1 recognizes an epitope on the glycoprotein αIIbβ3 of activated platelets. […]
Fibrinogen-Alexa Fluor 488 binding to platelets flow cytometric assay. […] Final concentration of fibrinogen conjugated to Alexa Fluor 488 was determined spectrophotometrically. […]

The test system of another series is MEG-01 tumors. The experiment in a line: Hematoxylin & eosin staining of MEG-01 tumors. It is filed as in vivo, mice. More on the design: dose or concentration left out as unconfirmed. Particulars: DMAT treated vs control. As to the method: Hematoxylin & eosin staining of tumor tissue and organs. After euthanasia with CO2, mice were supposed to necropsy. Tumors were collected from under the skin from both flanks and were measured for the last time and then fixed in formalin fixative. Spleen, liver, kidney, brain, lungs and legs were collected and fixed. Spleens were also measured (as length, […]). Fresh tissue was immersed immediately into liquid nitrogen and kept frozen at −80° C. Fixed tissue was embedded in paraffin and next processed for H&E (the basic dye hematoxylin, and the alcohol-based synthetic material, eosin) by the Cleveland Clinic Histology Core facility. Sections (4-μm thick) were stained with hematoxylin and eosin and evaluated for pathologic changes in a blinded fashion. H&E staining gives morphological information (vascularization, normal proliferating tissue, necrosis and apoptosis of the tissue).

Structures are written as SMILES.

Regarding `CN(C)c1nc2c(Br)c(Br)c(Br)c(Br)c2[nH]1` [DMAT, 2-dimethylamino-4,5,6,7-tetrabromo-1H-benzimidazole], the “DNA content (ploidy)” value with MEG-01 cells [1] was “become polyploid (ploidy higher than 2N)”. Also, the “effect on the kidney, bone marrow, and liver as assessed histologically” value in series [2] is “had no effect”. In addition, the “cytotoxicity (necrosis) in MEG-01 cells” value in the series with MEG-01 cells [3] is listed as “without being cytotoxic”. Moreover, the “level of necrotic cells” value with MEG-01 cells [3] (20 μM DMAT, 24 hours, control untreated 0.87%) worked out at 0.39%. In the series on MEG-01 cells [3] (20 μM DMAT, 24 hours, control untreated 8.7%), the “level of apoptotic cells” value turned out to be 19%. In the series with MEG-01 cells [3] (24 to 96 hours), the “dose and time dependence of induced apoptosis and phenotype change” value is “dose and time dependent”. Besides, in series [4] (DMAT 10 μM at 72 hours, human thrombin 0.5 U/ml), the “fibrin clot formation by platelets from treated MEG-01 cells” value is “form a fibrin clot”. Further, the “function of platelets obtained from treated MEG-01 cells” value in series [4] (response to human thrombin 0.5 U/ml) is reported as “functional”. Moreover, in the series on MEG-01 tumors, the “apoptotic-necrotic areas in tumors (hematoxylin and eosin)” value is “significantly greater areas of apoptosis and necrosis”.
